Data on 7 compounds can be found in ChEMBL document CHEMBL4311972, “Discovery of a benzothiophene-flavonol halting miltefosine and antimonial drug resistance in Leishmania parasites through the application of medicinal chemistry, screening and genomics” (Eur J Med Chem, 2019).

CYP2C9, sequence (P11712 whole entry): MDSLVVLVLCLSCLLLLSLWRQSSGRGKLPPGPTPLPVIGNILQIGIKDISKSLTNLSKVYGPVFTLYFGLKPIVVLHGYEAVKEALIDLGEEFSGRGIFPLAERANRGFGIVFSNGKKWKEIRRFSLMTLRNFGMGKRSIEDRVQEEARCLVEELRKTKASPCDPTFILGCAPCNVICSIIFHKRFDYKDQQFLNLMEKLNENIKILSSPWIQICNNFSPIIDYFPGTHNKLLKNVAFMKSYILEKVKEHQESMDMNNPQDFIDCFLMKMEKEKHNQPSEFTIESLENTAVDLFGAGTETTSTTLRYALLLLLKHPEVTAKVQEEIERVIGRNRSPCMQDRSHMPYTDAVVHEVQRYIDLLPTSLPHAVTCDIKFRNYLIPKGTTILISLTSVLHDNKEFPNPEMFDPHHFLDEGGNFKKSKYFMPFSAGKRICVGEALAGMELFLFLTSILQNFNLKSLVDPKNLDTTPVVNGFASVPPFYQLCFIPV

One data set deals with CYP2C19 (Homo sapiens, UniProt P33261). The data set is described as follows: Inhibition of human microsomal CYP2C19 expressed in baculovirus infected insect cells at 10 uM using luciferin-H EGE as substrate preincubated with enzyme/substrate mixture for 30 mins followed by further incubation with NADPH for 30 mins by CYP450 luciferase Glo assay relative to control. It is filed as ADME. The note with it: probe luciferin-H EGE.
CYP2C19, sequence (P33261 whole entry): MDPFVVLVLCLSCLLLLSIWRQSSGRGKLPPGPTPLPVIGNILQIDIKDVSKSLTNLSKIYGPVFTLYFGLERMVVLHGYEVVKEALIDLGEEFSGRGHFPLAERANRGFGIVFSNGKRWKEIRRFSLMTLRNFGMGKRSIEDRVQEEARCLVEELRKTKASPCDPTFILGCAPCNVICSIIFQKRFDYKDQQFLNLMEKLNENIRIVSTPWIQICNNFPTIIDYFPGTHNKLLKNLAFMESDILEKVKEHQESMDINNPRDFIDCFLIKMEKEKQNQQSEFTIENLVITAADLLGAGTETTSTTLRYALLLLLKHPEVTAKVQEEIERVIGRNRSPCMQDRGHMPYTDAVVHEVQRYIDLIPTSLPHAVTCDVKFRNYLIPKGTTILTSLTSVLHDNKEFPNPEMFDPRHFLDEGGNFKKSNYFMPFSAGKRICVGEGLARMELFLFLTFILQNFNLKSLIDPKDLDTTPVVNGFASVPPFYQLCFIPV
As a reminder, the inhibition is the change of the read-out against control, counted positive when it falls. For the compound `Cc1csc(-c2oc3cccc(O)c3c(=O)c2O)c1`, the inhibition at 0.5 h, 10 µM worked out at 27.3%.

As to `O=c1c(O)c(-c2csc3ccccc23)oc2cc(F)ccc12`, the inhibition at 0.5 h, 10 µM is 24.2%.

For the compound `COc1ccc2oc(-c3cn(C)c4ccccc34)c(O)c(=O)c2c1`, the inhibition at 0.5 h, 10 µM is -1.53%.

Regarding `O=c1c(O)c(-c2ccco2)oc2ccc(O)cc12`, the inhibition at 0.5 h, 10 µM came out at 73.2%.

Turning to `Cc1ccsc1-c1oc2cc(O)ccc2c(=O)c1O`, the inhibition at 0.5 h, 10 µM came to 57.9%.

As to `COc1ccc2oc(-c3ccc4ncccc4c3)c(O)c(=O)c2c1`, the inhibition at 0.5 h, 10 µM is -8.24%.

Take `COc1ccc2c(=O)c(O)c(-c3ccco3)oc2c1`: the inhibition at 0.5 h, 10 µM turned out to be 68.7%.

Another data set deals with CYP3A4 (Homo sapiens, UniProt P08684). The data set is described as follows: Inhibition of human microsomal CYP3A4 expressed in baculovirus infected insect cells at 10 uM using luciferin-IPA as substrate preincubated with enzyme/substrate mixture for 30 mins followed by further incubation with NADPH for 30 mins by CYP450 luciferase Glo assay relative to control. It is filed as ADME. Particulars: probe luciferin-IPA; call rule not given here.
CYP3A4, sequence (P08684 whole entry): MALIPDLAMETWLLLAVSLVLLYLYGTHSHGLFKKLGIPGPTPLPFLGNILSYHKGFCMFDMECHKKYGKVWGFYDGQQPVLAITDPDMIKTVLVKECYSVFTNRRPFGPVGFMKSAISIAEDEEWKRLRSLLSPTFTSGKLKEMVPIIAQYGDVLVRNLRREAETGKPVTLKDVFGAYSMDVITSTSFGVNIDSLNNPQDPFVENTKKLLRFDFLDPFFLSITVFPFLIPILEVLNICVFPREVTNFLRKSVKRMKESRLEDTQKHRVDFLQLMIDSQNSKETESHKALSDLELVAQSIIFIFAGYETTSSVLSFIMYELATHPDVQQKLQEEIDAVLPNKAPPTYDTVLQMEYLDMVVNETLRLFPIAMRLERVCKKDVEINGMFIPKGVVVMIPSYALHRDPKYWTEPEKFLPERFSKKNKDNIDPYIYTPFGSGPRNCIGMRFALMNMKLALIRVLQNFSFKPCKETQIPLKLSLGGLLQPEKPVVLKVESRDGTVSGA
For `Cc1csc(-c2oc3cccc(O)c3c(=O)c2O)c1`, the inhibition at 0.5 h, 10 µM was found to be 6.11%.

Turning to `O=c1c(O)c(-c2csc3ccccc23)oc2cc(F)ccc12`, the inhibition at 0.5 h, 10 µM was found to be 9.54%.

Take `COc1ccc2oc(-c3cn(C)c4ccccc34)c(O)c(=O)c2c1`: the inhibition at 0.5 h, 10 µM was found to be 22%.

Turning to `O=c1c(O)c(-c2ccco2)oc2ccc(O)cc12`, the inhibition at 0.5 h, 10 µM turned out to be 7.49%.

On to `Cc1ccsc1-c1oc2cc(O)ccc2c(=O)c1O`, for which the inhibition at 0.5 h, 10 µM came out at 73.8%.

With `COc1ccc2oc(-c3ccc4ncccc4c3)c(O)c(=O)c2c1`, the inhibition at 0.5 h, 10 µM is -3.86%.

On to `COc1ccc2c(=O)c(O)c(-c3ccco3)oc2c1`, for which the inhibition at 0.5 h, 10 µM was -0.65%.

The next data set deals with Trypanosoma brucei. The data set is described as follows: Antitrypanosomal activity against Trypanosoma brucei bloodstream form assessed as parasite growth inhibition incubated for 72 hrs by resazurin dye based assay. The data set is classed as functional, organism-based.
Settings: not given
On the technique in general: The colour change of resazurin is a common sign of viable cells or microbes.
As for `Cc1csc(-c2oc3cccc(O)c3c(=O)c2O)c1`, the EC50 entry is “Not Active”.

On to `O=c1c(O)c(-c2ccco2)oc2ccc(O)cc12`, for which the EC50 entry is “Not Active”.

In the case of `Cc1ccsc1-c1oc2cc(O)ccc2c(=O)c1O`, the EC50 result is on record as “Not Active”.

For the compound `COc1ccc2oc(-c3ccc4ncccc4c3)c(O)c(=O)c2c1`, the EC50 result was “Not Active”.

Turning to `COc1ccc2c(=O)c(O)c(-c3ccco3)oc2c1`, the EC50 result is given as “Not Active”.

System in another data set: not listed separately
The experiment in a line: Cytotoxicity against human THP1 cells by MTT assay. It is filed as cell-based, THP-1.
Settings: not given
(Tetrazolium assays rely on reduction of a dye to a coloured formazan, in cell work by metabolically active cells.)
By CC50 is commonly meant the concentration that lowers cell viability or growth by half. As for `Cc1csc(-c2oc3cccc(O)c3c(=O)c2O)c1`, the CC50 is above 100 µM.

As to `O=c1c(O)c(-c2csc3ccccc23)oc2cc(F)ccc12`, the CC50 was 25 to 50 µM.

In turn, `O=c1c(O)c(-c2ccco2)oc2ccc(O)cc12` came in with a CC50 of 20 to 50 µM.

The compound `Cc1ccsc1-c1oc2cc(O)ccc2c(=O)c1O` displayed a CC50 of 12.5 to 20 µM.

In turn, `COc1ccc2oc(-c3ccc4ncccc4c3)c(O)c(=O)c2c1` yielded a CC50 above 100 µM.

Turning to `COc1ccc2c(=O)c(O)c(-c3ccco3)oc2c1`, the half-maximal cytotoxic concentration (CC50) was above 100 µM.

In another data set the test system is 786-0. The experiment in a line: Mitochondrial toxicity in human 786-0 cells at 10 uM incubated with compound for 6 hrs followed by incubation with MitoTracker Red chloromethyl-X-rosamine dye for 45 mins by imaging analysis. It is filed as cell-based. The note with it: 786-0, 6 h.
In the case of `Cc1csc(-c2oc3cccc(O)c3c(=O)c2O)c1`, the Activity came out at 5.8%.

On to `O=c1c(O)c(-c2csc3ccccc23)oc2cc(F)ccc12`, for which the Activity was -22.29%.

With `COc1ccc2oc(-c3cn(C)c4ccccc34)c(O)c(=O)c2c1`, the Activity was -1.87%.

On to `O=c1c(O)c(-c2ccco2)oc2ccc(O)cc12`, for which the Activity came to 4.3%.

For the compound `Cc1ccsc1-c1oc2cc(O)ccc2c(=O)c1O`, the Activity is -3.38%.

Turning to `COc1ccc2oc(-c3ccc4ncccc4c3)c(O)c(=O)c2c1`, the Activity is reported as -7.05%.

For the compound `COc1ccc2c(=O)c(O)c(-c3ccco3)oc2c1`, the Activity is recorded as -1.6%.

For another data set, the target named is hERG (KCNH2) (Homo sapiens, UniProt Q12809). The experiment in a line: Inhibition of human ERG at 10 uM incubated for 2 hrs by fluorescence polarization assay relative to control.
hERG (KCNH2), sequence (Q12809 whole entry): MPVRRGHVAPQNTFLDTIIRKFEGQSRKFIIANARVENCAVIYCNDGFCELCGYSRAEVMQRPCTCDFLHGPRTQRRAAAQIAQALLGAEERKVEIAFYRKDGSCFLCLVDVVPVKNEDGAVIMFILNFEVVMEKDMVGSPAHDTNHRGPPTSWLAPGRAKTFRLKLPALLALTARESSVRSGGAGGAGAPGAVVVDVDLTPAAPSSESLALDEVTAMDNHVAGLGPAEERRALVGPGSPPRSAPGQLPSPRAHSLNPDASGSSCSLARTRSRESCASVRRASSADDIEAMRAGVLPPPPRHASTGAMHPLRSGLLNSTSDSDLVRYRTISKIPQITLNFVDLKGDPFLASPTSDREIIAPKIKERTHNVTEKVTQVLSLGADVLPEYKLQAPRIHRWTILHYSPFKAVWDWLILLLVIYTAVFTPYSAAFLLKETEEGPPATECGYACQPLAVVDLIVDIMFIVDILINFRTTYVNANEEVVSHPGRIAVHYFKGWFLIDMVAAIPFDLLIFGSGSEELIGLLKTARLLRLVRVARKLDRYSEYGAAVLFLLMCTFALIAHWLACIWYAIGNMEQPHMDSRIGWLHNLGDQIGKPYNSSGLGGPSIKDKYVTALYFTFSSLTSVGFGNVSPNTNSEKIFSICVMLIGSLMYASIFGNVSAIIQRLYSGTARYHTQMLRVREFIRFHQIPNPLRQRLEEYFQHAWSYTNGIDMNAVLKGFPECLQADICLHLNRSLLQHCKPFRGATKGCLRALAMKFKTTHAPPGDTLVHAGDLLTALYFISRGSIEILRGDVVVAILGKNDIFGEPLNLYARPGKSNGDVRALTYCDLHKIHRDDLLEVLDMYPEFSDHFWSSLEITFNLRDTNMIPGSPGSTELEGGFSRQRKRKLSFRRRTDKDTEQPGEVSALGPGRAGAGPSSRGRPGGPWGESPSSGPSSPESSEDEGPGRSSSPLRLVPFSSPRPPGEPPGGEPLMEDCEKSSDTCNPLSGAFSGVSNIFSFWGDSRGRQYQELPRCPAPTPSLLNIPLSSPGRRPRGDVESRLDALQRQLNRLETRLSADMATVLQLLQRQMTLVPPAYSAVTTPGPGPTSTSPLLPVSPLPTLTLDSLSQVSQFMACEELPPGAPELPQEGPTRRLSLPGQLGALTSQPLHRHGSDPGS
Settings: not given
For orientation: Polarisation of emitted light reports the rotation of a fluorescent probe.
Turning to `Cc1csc(-c2oc3cccc(O)c3c(=O)c2O)c1`, the inhibition at 2 h, 10 µM was determined as 34.2%.

Consider `O=c1c(O)c(-c2csc3ccccc23)oc2cc(F)ccc12`, for which the inhibition at 2 h, 10 µM was found to be 11.6%.

Regarding `COc1ccc2oc(-c3cn(C)c4ccccc34)c(O)c(=O)c2c1`, the inhibition at 2 h, 10 µM is 12.7%.

Regarding `O=c1c(O)c(-c2ccco2)oc2ccc(O)cc12`, the inhibition at 2 h, 10 µM was found to be 6.43%.

For `Cc1ccsc1-c1oc2cc(O)ccc2c(=O)c1O`, the inhibition at 2 h, 10 µM was -1.79%.

Regarding `COc1ccc2oc(-c3ccc4ncccc4c3)c(O)c(=O)c2c1`, the inhibition at 2 h, 10 µM is 16.1%.

As to `COc1ccc2c(=O)c(O)c(-c3ccco3)oc2c1`, the inhibition at 2 h, 10 µM was -3.37%.

System in a further data set: not listed separately
The data set is described as follows: Cytotoxicity against human A549 cells assessed as cell growth at […] incubated for 48 hrs by Celltiter-Glo luminescence assay relative to control. Particulars: read-out: Activity. It is filed as cell-based. Details: dose or concentration left out as unconfirmed.
On to `Cc1csc(-c2oc3cccc(O)c3c(=O)c2O)c1`, for which the viability at 48 h was 56.8%.

Consider `O=c1c(O)c(-c2csc3ccccc23)oc2cc(F)ccc12`, for which the viability at 48 h is 124%.

Turning to `COc1ccc2oc(-c3cn(C)c4ccccc34)c(O)c(=O)c2c1`, the viability at 48 h stood at 18.6%.

With `O=c1c(O)c(-c2ccco2)oc2ccc(O)cc12`, the viability at 48 h came to 104%.

Turning to `Cc1ccsc1-c1oc2cc(O)ccc2c(=O)c1O`, the viability at 48 h was determined as 83.4%.

In the case of `COc1ccc2oc(-c3ccc4ncccc4c3)c(O)c(=O)c2c1`, the viability at 48 h was found to be 101%.

For the compound `COc1ccc2c(=O)c(O)c(-c3ccco3)oc2c1`, the viability at 48 h is 102%.

A further data set concerns Leishmania infantum. The experiment in a line: Antileishmanial activity against luciferase expressing intracellular amastigote stage of Leishmania infantum infected in human THP1 cells assessed as parasite growth inhibition measured after 48 to 72 hrs by steady-glo luciferase assay. It is filed as functional, organism-based.
Settings: not given
For `O=c1c(O)c(-c2csc3ccccc23)oc2cc(F)ccc12`, the EC50 result is listed as “Not Active”.

For the next data set, the target named is T1, CYP1A2 (Homo sapiens, UniProt P05177).
T1 sequence (P05177 whole entry): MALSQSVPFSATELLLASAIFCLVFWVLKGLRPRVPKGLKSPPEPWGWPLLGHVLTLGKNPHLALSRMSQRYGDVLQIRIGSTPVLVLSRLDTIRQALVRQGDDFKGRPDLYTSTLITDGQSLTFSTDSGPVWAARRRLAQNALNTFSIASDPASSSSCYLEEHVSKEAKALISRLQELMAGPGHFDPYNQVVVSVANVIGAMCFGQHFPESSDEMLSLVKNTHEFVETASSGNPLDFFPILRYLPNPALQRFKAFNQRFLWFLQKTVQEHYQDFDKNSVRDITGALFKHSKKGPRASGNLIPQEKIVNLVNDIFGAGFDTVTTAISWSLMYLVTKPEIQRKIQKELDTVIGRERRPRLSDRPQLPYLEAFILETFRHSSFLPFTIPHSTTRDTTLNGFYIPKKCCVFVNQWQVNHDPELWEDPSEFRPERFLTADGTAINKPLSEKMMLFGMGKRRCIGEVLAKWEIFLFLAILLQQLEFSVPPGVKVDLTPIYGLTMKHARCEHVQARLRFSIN
The data set is described as follows: Inhibition of human microsomal CYP1A2 expressed in baculovirus infected insect cells at 10 uM using luciferin-1A2 as substrate preincubated with enzyme/substrate mixture for 30 mins followed by further incubation with NADPH for 30 mins by CYP450 luciferase Glo assay relative to control. It is filed as ADME. The note with it: probe luciferin-1A2.
As for `Cc1csc(-c2oc3cccc(O)c3c(=O)c2O)c1`, the inhibition at 0.5 h, 10 µM was 106%.

As to `O=c1c(O)c(-c2csc3ccccc23)oc2cc(F)ccc12`, the inhibition at 0.5 h, 10 µM worked out at 80.6%.

Regarding `COc1ccc2oc(-c3cn(C)c4ccccc34)c(O)c(=O)c2c1`, the inhibition at 0.5 h, 10 µM was determined as 89.2%.

As for `O=c1c(O)c(-c2ccco2)oc2ccc(O)cc12`, the inhibition at 0.5 h, 10 µM was 96.7%.

As to `Cc1ccsc1-c1oc2cc(O)ccc2c(=O)c1O`, the inhibition at 0.5 h, 10 µM stood at 108%.

On to `COc1ccc2oc(-c3ccc4ncccc4c3)c(O)c(=O)c2c1`, for which the inhibition at 0.5 h, 10 µM is 27.4%.

In the case of `COc1ccc2c(=O)c(O)c(-c3ccco3)oc2c1`, the inhibition at 0.5 h, 10 µM came to 103%.

In the next data set the target is CYP2D6 (Homo sapiens, UniProt P10635). The data set is described as follows: Inhibition of human microsomal CYP2D6 expressed in baculovirus infected insect cells at 10 uM using luciferin-ME as substrate preincubated with enzyme/substrate mixture for 30 mins followed by further incubation with NADPH for 30 mins by CYP450 luciferase Glo assay relative to control. The data set is classed as ADME. The note with it: probe luciferin-ME.
CYP2D6, sequence (P10635 whole entry): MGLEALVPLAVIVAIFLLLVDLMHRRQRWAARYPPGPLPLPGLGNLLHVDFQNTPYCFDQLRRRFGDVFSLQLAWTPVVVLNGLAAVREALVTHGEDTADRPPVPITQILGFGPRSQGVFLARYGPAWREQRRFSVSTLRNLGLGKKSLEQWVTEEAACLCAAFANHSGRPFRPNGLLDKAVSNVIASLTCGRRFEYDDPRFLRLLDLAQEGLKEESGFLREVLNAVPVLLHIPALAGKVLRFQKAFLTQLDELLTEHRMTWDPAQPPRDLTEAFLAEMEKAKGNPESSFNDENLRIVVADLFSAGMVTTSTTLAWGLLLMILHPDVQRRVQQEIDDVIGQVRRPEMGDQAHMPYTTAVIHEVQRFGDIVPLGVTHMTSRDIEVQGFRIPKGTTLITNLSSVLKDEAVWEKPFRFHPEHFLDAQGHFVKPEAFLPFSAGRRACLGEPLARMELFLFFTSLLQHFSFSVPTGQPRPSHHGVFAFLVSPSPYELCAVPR
For the compound `Cc1csc(-c2oc3cccc(O)c3c(=O)c2O)c1`, the inhibition at 0.5 h, 10 µM was 10.9%.

For the compound `O=c1c(O)c(-c2csc3ccccc23)oc2cc(F)ccc12`, the inhibition at 0.5 h, 10 µM is 23%.

On to `COc1ccc2oc(-c3cn(C)c4ccccc34)c(O)c(=O)c2c1`, for which the inhibition at 0.5 h, 10 µM was determined as 3.57%.

Consider `O=c1c(O)c(-c2ccco2)oc2ccc(O)cc12`, for which the inhibition at 0.5 h, 10 µM is 36.2%.

Regarding `Cc1ccsc1-c1oc2cc(O)ccc2c(=O)c1O`, the inhibition at 0.5 h, 10 µM is 24.1%.

Take `COc1ccc2oc(-c3ccc4ncccc4c3)c(O)c(=O)c2c1`: the inhibition at 0.5 h, 10 µM is -15.1%.

In the case of `COc1ccc2c(=O)c(O)c(-c3ccco3)oc2c1`, the inhibition at 0.5 h, 10 µM came out at 23.4%.

The next data set concerns the target CYP2C9 (Homo sapiens, UniProt P11712). The experiment in a line: Inhibition of human microsomal CYP2C9 expressed in baculovirus infected insect cells at 10 uM using luciferin-H as substrate preincubated with enzyme/substrate mixture for 30 mins followed by further incubation with NADPH for 30 mins by CYP450 luciferase Glo assay relative to control. The data set is classed as ADME. Particulars: probe luciferin-H.
In the case of `Cc1csc(-c2oc3cccc(O)c3c(=O)c2O)c1`, the inhibition at 0.5 h, 10 µM was determined as 71.8%.

On to `O=c1c(O)c(-c2csc3ccccc23)oc2cc(F)ccc12`, for which the inhibition at 0.5 h, 10 µM was found to be 26.5%.

Turning to `COc1ccc2oc(-c3cn(C)c4ccccc34)c(O)c(=O)c2c1`, the inhibition at 0.5 h, 10 µM is -0.02%.

Regarding `O=c1c(O)c(-c2ccco2)oc2ccc(O)cc12`, the inhibition at 0.5 h, 10 µM came to 47.6%.

On to `Cc1ccsc1-c1oc2cc(O)ccc2c(=O)c1O`, for which the inhibition at 0.5 h, 10 µM worked out at 43.8%.

For the compound `COc1ccc2oc(-c3ccc4ncccc4c3)c(O)c(=O)c2c1`, the inhibition at 0.5 h, 10 µM is -3.36%.

As for `COc1ccc2c(=O)c(O)c(-c3ccco3)oc2c1`, the inhibition at 0.5 h, 10 µM is 46.3%.
